Reference: patent US20090325863A1, “Somatostatin analogs and IGF-I inhibition for breast cancer prevention” (priority 2008, published 2009)
“And” between values parts separate entries of the source, which are not always exact repeats. Identical values can stand only once. “Also recorded” adds a separate entry of the source. Marks after values point to notes of the source that are not given here. *1 amine or outer side, *2 acyl side, *3 side chain or, on linkers, in order; H or OH if unused. Where a SMILES comes first, the peptide text is derived from it. Side-chain parts run from the residue outwards. [ ]: non-standard residue; d: D form. The star is where a group is joined. Ethylenediamine = C(CN[*:2])N[*:1]; Hyp = O=C(O)[C@@H]1C[C@@H](O)CN1; Phg = N[C@H](C(=O)O)c1ccccc1; CO = O=C([*:1])[*:2]; Bn = c1ccc(C*)cc1

Experiments:
[1] = tested on: mammary hyperplasia induced by hGH and E2; assay: Mammary hyperplasia model induced by hGH and E2, counts in histological sections; format: in vivo, rat; conditions: for Mild# (mild hyperplasia): GH + E2 control 4.2 ± 0.6, E2 1.9 ± 0.2; for Moderate# (moderate hyperplasia): GH + E2 control 5.0 ± 0.7, E2 0; for Florid# (florid hyperplasia): GH + E2 control 9.6 ± 0.1, E2 0; for Total# (total number of glands): hypophysectomized, oophorectomized female rats, hGH 600 μg + E2, 7 days, GH + E2 control 71.9 ± 5.4, E2 42.2 ± 1.4; for Florid#: GH + E2 control 10 ± 0.7
Description: To test whether SOM230, a drug that inhibits IGF-I action on the breast, was effective, we implemented a model of hyperplasia and then determined whether the hyperplasia could be inhibited by SOM230. We administered human growth hormone (600 mcg in alzet pumps) for a week, and gave this together with estradiol (an estrogen). At the end of 7 days florid hyperplasia developed. Mammary hyperplasia was modeled by treating hypophysectomized, oophorectomized female rats with high doses human growth hormone (hGH) (600 μg in Alzet pumps) and follicular phase concentrations of estradiol (E2) administered in silastic capsules for 7 days. In the absence of hGH, these animals would not undergo mammary development. In animals receiving E2 alone, there was virtually no hyperplasia. When hGH was added to E2 there were more glands (42.2±1.4 vs. 71.9±5.4, E2 vs. E2+hGH, respectively). There was no florid hyperplasia with E2 treatment. When hGH was given also, 26.6% of the glands were hyperplastic, with 50% of those being floridly hyperplastic, 7% moderate hyperplasia and 5.9% mild hyperplasia. […] This is shown in histological sections (FIG. 1), graphically (FIG. 2) and in tabular form below (TABLE 1).
(§1) Background: Antiestrogens or aromatase inhibitors are used for breast cancer chemoprevention. These treatments cause unpleasant side effects including hot flashes and vaginal dryness. We have previously shown that IGF-I is required to permit estrogen and progesterone action in the mammary gland. […] Menopausal symptoms would not likely to occur with SOM230 since estrogen is not lowered. Material and Methods: We have approached this issue in several ways. 1) We developed a model of hyperplasia in hypophysectomized and oophorectomized female rats. Hyperplasia was induced by treatment with 600 mcg hGH and follicular phase concentrations of estradiol. Hyperplasia was assessed histologically in sections of mammary gland. 2) To assess translatability to humans we assessed cell proliferation and apoptosis in normal human breast from reduction mammoplasties and samples of usual hyperplasia. 3) We also determined availability of SST receptors in samples of atypical ductal hyperplasia and DCIS, and 4) We have begun to determine whether SOM230 will prevent hyperplasia in humans at risk for breast cancer as it does in rats.
The degree of hyperplasia was analyzed in 3 histological sections at different levels in 3 test animals given GH+E2. The different types of hyperplasia were counted. For example, the total mean number of ducts was 88.3. Of those ducts, there were 19.7 or 22.3% of total ducts that were hyperplastic. The breakdown was a mean of 10 ducts with florid hyperplasia (lumen is distended and mostly obliterated by epithelial cells), a mean of 5.3 ducts with moderate hyperplasia (an increase in cell layers to >4 cells thick), and a mean of 4.4 characterized as mild hyperplasia (no more than 4 cell thickness).
There were 4 additional treatment groups and one E2 treated control group.

[2] = tested on: hGH induced TEB formation; assay: Hyperplastic terminal endbuds (TEBs) in mammary gland whole mounts, hGH+E2 model; format: in vivo, rat; conditions: for TEB area: Table 2, mean of 3 animals, hGH + E control 43.1 ± 2.9, P 0.002
Description: At the end of 7 days one lumbar mammary gland was removed for whole mount analysis and the other for histological analysis. Hyperplastic TEBs were counted in the whole mounts. […] Representative photomicrographs of the whole mounts are provided in FIG. 5 and suppression by the different treatments is shown graphically in FIG. 6.

[3] = tested on: pYIRS-1 (phosphorylated IRS-1); assay: pYIRS-1 staining in glands and mast cells of normally developing rats; format: in vivo, rat; conditions: 28 day old female rats treated from day 21
Description: We have found for the first time that mast cells play a role in normal mammary development. Mast cells appear around developing mammary gland structures in rats. […] The same animals when they were 21 days old were given SOM230. […] The mast cells are found directly around the developing glands in the stromal compartment.
That these mast cells are directly stimulated by IGF-I is supported by the observation that phosphorylated IRS-1 was reduced in mast cells on exposure to SOM230. The action of SOM230 in mammary gland is therefore one of IGF-I action inhibition. […] The one on the right panel is from an animal treated with SOM230. Not only was pYIRS-I reduced in glands but mast cells were reduced as well.

[4] = tested on: VEGF; assay: VEGF immunostaining in mammary glands of normally developing rats; format: in vivo, rat; conditions: 28 day old rats treated from day 21; gland cells and mast cells
Description: (§2) They were found in both gland cells and mast cells.

[5] = tested on: Factor VIII; assay: Factor VIII immunostaining in mammary glands of normally developing rats; format: in vivo, rat; conditions: 28 day old rats treated from day 21; gland cells and mast cells
Description: as §2

[6] = tested on: hyperplastic lesions, LCIS and DCIS of human mammary gland; assay: Proof of principle clinical trial, biopsies before and after treatment (Ki67, TUNEL); format: in vivo
Description: as §1
A proof of principle clinical trial is underway to further confirm whether SOM230 inhibits cell proliferation and increases apoptosis in human mammary gland as it does in rats. Data is presently available on 11 enlisted subjects. All patients had atypical hyperplasia on core biopsy and were given 600 ug SOM230 twice daily by injection. Data is available on 8 patients who had forms of hyperplasia that increase the likelihood of developing breast cancer. […] The effect of SOM230 on apoptosis and cell proliferation in hyperplastic lesions in the 8 patients is graphed in FIG. 17. This was also true in 2 cases of LCIS, a pre-cancerous condition, and one case of ductal carcinoma in situ, a cancerous situation. Apoptosis and cell proliferation is graphed for the 2 lobular hyperplasia patients in FIG. 18. FIG. 19 provides a DCIS patient sample cell staining for TUNEL and Ki67 before and after SOM230 administration. DCIS is a very common type of noninvasive breast cancer in women. Thus, human beings respond to SOM230 by inhibiting IGF-I action in the mammary gland. Taken together with our data on relative effects of SOM230 and Tamoxifen our data provide evidence that SOM230 will be at least as effective in preventing or treating breast cancer as Tamoxifen.

[7] = 8 hyperplasia patients, 600 ug twice daily by injection, biopsy before/after
[8] = lobular carcinoma in situ patients (2 cases), excisional versus core biopsy

NCCCC[C@@H]1NC(=O)[C@@H](Cc2c[nH]c3ccccc23)NC(=O)[C@H](c2ccccc2)NC(=O)[C@@H]2C[C@@H](OC(=O)NCCN)CN2C(=O)[C@H](Cc2ccccc2)NC(=O)[C@H](Cc2ccc(OCc3ccccc3)cc2)NC1=O [SOM230] (cyclo([Hyp]([CO-Ethylenediamine])[Phg][dW]KY(Bn)F))
number of areas of florid hyperplasia ([1]; Example 3, from 18.9±1.3 with hGH and E2 (p<0.001)): 7.5±0.5 | Mild# (mild hyperplasia) ([1]; Table 1, 7 days): 3.0±0.4 | Mild# (mild hyperplasia) ([1]; Table 1, 7 days, listed as SOM): 3.0 ± 0.4 | Moderate# (moderate hyperplasia) ([1]; Table 1, 7 days): 3.8±0.4 | Moderate# (moderate hyperplasia) ([1]; Table 1, 7 days, listed as SOM): 3.8 ± 0.4 | Florid# (florid hyperplasia) ([1]; Table 1, 7 days): 0.8±0.2 | Florid# (florid hyperplasia) ([1]; Table 1, 7 days, listed as SOM): 0.8 ± 0.2 | DH# (hyperplastic structures) ([1]; Table 1, 7 days, GH + E2 control 18.9 ± 1.3, E2 1.9 ± 0.2): 7.5 ± 0.5^b | Total# (total number of glands) ([1]; Table 1): 46.0±2.8 | Total# (total number of glands) ([1]; Table 1, listed as SOM): 46.0 ± 2.8 | Total# ([1]; Table 3, SOM230 30 mcg/h/kg, Octreotide 30 mcg/hr/kg, Tamoxifen 30 mg/21 day release pellet, GH + E2 control 88.3 ± 6.3): 61.4 ± 7.0 | Mild# ([1]; Table 3, same doses, GH + E2 control 4.4 ± 0.6): 3.3 ± 0.3 | Moderate# ([1]; Table 3, same doses, GH + E2 control 5.3 ± 0.6): 3.8 ± 0.4 | Florid# ([1]; Table 3, same doses): 1.7 | Florid# ([1]; Table 3, same doses, listed as SOM): 1.7 ± 0.6 | DH# ([1]; Table 3, same doses, GH + E2 control 19.7 ± 1.5): 8.8 ± 0.7^b | hyperplasia / breast hyperplastic lesions (in words) ([1]; given together with hGH and estradiol, 7 days): hyperplasia was significantly inhibited; also recorded: reduction in the number and size of breast hyperplastic lesions; also recorded: reduction in hyperplasia | TEB area, individual animals ([2]; Table 2, animal # 1-3, hGH + E controls 48549, 38496, 42285, listed as SOM): 18816 and 13652 and 15356 | TEB area [2]: reduced | TEB area ([2]; listed as SOM): 15.9 ± 1.5 (μm^2) × 10^3 | number of hyperplastic TEBs in whole mounts ([2]; hGH+E2, 7 days, reduced from 86.5 (86) TEBs in hGH+E2 control): 27.5 | pYIRS-1 in glands and mast cells [3]: inhibited; also recorded: reduced | expression of VEGF (immunostaining) [4]: reduced expression | expression of Factor VIII (immunostaining) [5]: reduced expression | apoptosis (TUNEL assay) in hyperplastic lesions [6, 7]: increase in apoptosis | cell proliferation (Ki67 assay) in hyperplastic lesions [6, 7]: inhibition of cell proliferation | apoptosis (TUNEL) in LCIS [6, 8]: increased apoptosis | cell proliferation (Ki67) in LCIS [6, 8]: decreased cell proliferation
